According to PubChem BioAssay (NCI):
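Compound exposure: 48 hours, 5 concentrations, 96-well plates. Abbreviation: GI50, concentration required for 50% inhibition of growth. TGI marks complete inhibition of growth.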

Tests used:
Experiment in all cases: growth of human tumour cells (NCI), 48 h; in the data active = GI50 below about 0.43 µM; inactive = the rest
OVCAR-3 ovarian = tested on: OVCAR-3 ovarian
HOP-62 NSCLC = tested on: HOP-62 NSCLC
UACC-257 melanoma = tested on: UACC-257 melanoma
PC-3 prostate = tested on: PC-3 prostate
NCI/ADR-RES ovarian = tested on: NCI/ADR-RES ovarian
NCI-H522 lung = tested on: NCI-H522 lung
NCI-H23 lung = tested on: NCI-H23 lung
SNB-19 CNS = tested on: SNB-19 CNS
SNB-75 CNS = tested on: SNB-75 CNS
SK-MEL-5 melanoma = tested on: SK-MEL-5 melanoma
HS 578T breast = tested on: HS 578T breast
SK-OV-3 ovarian = tested on: SK-OV-3 ovarian
KM12 colon = tested on: KM12 colon
786-0 renal = tested on: 786-0 renal
MDA-MB-435 = tested on: MDA-MB-435
SK-MEL-28 melanoma = tested on: SK-MEL-28 melanoma
MOLT-4 leukemia = tested on: MOLT-4 leukemia
SF-295 CNS = tested on: SF-295 CNS
UO-31 renal = tested on: UO-31 renal
HCT-116 colon = tested on: HCT-116 colon
NCI-H460 lung = tested on: NCI-H460 lung
MDA-MB-231 breast = tested on: MDA-MB-231 breast
SF-539 CNS = tested on: SF-539 CNS
UACC-62 melanoma = tested on: UACC-62 melanoma
RPMI-8226 leukemia = tested on: RPMI-8226 leukemia
NCI-H226 lung = tested on: NCI-H226 lung
IGROV1 ovarian = tested on: IGROV1 ovarian
LOX IMVI melanoma = tested on: LOX IMVI melanoma
EKVX NSCLC = tested on: EKVX NSCLC
MCF7 breast = tested on: MCF7 breast
SR leukemia = tested on: SR leukemia
ACHN renal = tested on: ACHN renal
SK-MEL-2 melanoma = tested on: SK-MEL-2 melanoma
BT-549 breast = tested on: BT-549 breast
SW-620 colon = tested on: SW-620 colon
U251 CNS = tested on: U251 CNS
RXF 393 renal = tested on: RXF 393 renal
HL-60(TB) leukemia = tested on: HL-60(TB) leukemia
TK-10 renal = tested on: TK-10 renal
OVCAR-4 ovarian = tested on: OVCAR-4 ovarian
HT29 colon = tested on: HT29 colon
HOP-92 NSCLC = tested on: HOP-92 NSCLC
M14 melanoma = tested on: M14 melanoma
OVCAR-5 ovarian = tested on: OVCAR-5 ovarian
SN12C renal = tested on: SN12C renal
DU-145 prostate = tested on: DU-145 prostate
SF-268 CNS = tested on: SF-268 CNS
K-562 leukemia = tested on: K-562 leukemia
HCT-15 colon = tested on: HCT-15 colon
OVCAR-8 ovarian = tested on: OVCAR-8 ovarian
CAKI-1 renal = tested on: CAKI-1 renal
A498 renal = tested on: A498 renal
A549 NSCLC = tested on: A549 NSCLC
COLO 205 colon = tested on: COLO 205 colon

CCOC(=O)c1c(C)n(CC(C)C)c2c1cc1oc(=O)c(=O)n3cnc2c13
21.6 µM: TGI (UACC-62 melanoma)
38.3 µM: TGI (KM12 colon)
24.1 µM: TGI (ACHN renal) | TGI (U251 CNS)
30.5 µM: TGI (UACC-257 melanoma)
47.6 µM: TGI (TK-10 renal)
43 µM: TGI (BT-549 breast)
41.3 µM: TGI (A498 renal)
22.9 µM: TGI (SN12C renal)
19.8 µM: TGI (SK-MEL-5 melanoma)
43.4 µM: TGI (HOP-92 NSCLC)
31 µM: TGI (NCI-H23 lung)
45.3 µM: TGI (MCF7 breast)
16 µM: TGI (LOX IMVI melanoma)
49.7 µM: TGI (RXF 393 renal)
33 µM: TGI (SF-295 CNS)
42 µM: TGI (SF-539 CNS)
36.7 µM: TGI (OVCAR-8 ovarian)
inactive: GI50 (OVCAR-3 ovarian) 11.2 µM | GI50 (HOP-62 NSCLC) 35 µM | GI50 (UACC-257 melanoma) 11.3 µM | GI50 (PC-3 prostate) 24.6 µM | GI50 (NCI/ADR-RES ovarian) 11.6 µM | GI50 (NCI-H522 lung) > 50 µM | GI50 (NCI-H23 lung) 12.3 µM | GI50 (SNB-19 CNS) 36.2 µM | GI50 (SNB-75 CNS) 12.5 µM | GI50 (SK-MEL-5 melanoma) 10.1 µM | GI50 (HS 578T breast) 11.8 µM | GI50 (SK-OV-3 ovarian) 20.4 µM | GI50 (KM12 colon) 13.6 µM | GI50 (786-0 renal) 20.1 µM | GI50 (MDA-MB-435) 9.07 µM | GI50 (SK-MEL-28 melanoma) 23.6 µM | GI50 (MOLT-4 leukemia) 15.8 µM | GI50 (SF-295 CNS) 12.8 µM | GI50 (UO-31 renal) 20.7 µM | GI50 (HCT-116 colon) 14.8 µM | GI50 (NCI-H460 lung) 16.7 µM | GI50 (MDA-MB-231 breast) 8.18 µM | GI50 (SF-539 CNS) 15.6 µM | GI50 (UACC-62 melanoma) 9.44 µM | GI50 (RPMI-8226 leukemia) 15.8 µM | GI50 (NCI-H226 lung) 9.63 µM | GI50 (IGROV1 ovarian) 15.1 µM | GI50 (LOX IMVI melanoma) 8.45 µM | GI50 (EKVX NSCLC) 17.4 µM | GI50 (MCF7 breast) 12.5 µM | GI50 (SR leukemia) 10.4 µM | GI50 (ACHN renal) 9.34 µM | GI50 (SK-MEL-2 melanoma) 38.7 µM | GI50 (BT-549 breast) 15.7 µM | GI50 (SW-620 colon) 1.79 µM | GI50 (U251 CNS) 10 µM | GI50 (RXF 393 renal) 12.9 µM | GI50 (HL-60(TB) leukemia) 11.5 µM | GI50 (TK-10 renal) 13.3 µM | GI50 (OVCAR-4 ovarian) 17.4 µM | GI50 (HT29 colon) 17.2 µM | GI50 (HOP-92 NSCLC) 14.5 µM | GI50 (M14 melanoma) 16.9 µM | GI50 (OVCAR-5 ovarian) 29.6 µM | GI50 (SN12C renal) 10.7 µM | GI50 (DU-145 prostate) 16.3 µM | GI50 (SF-268 CNS) 18 µM | GI50 (K-562 leukemia) 16.1 µM | GI50 (HCT-15 colon) 15.2 µM | GI50 (OVCAR-8 ovarian) 12.5 µM | GI50 (CAKI-1 renal) 11.4 µM | GI50 (A498 renal) 14.2 µM | GI50 (A549 NSCLC) 15.7 µM | GI50 (COLO 205 colon) 20.7 µM
22.1 µM: TGI (MDA-MB-231 breast)
37.2 µM: TGI (RPMI-8226 leukemia)
25.9 µM: TGI (OVCAR-3 ovarian)
36.4 µM: TGI (HL-60(TB) leukemia)
> 50 µM: TGI (HOP-62 NSCLC) | TGI (PC-3 prostate) | TGI (NCI-H522 lung) | TGI (SNB-19 CNS) | TGI (SNB-75 CNS) | TGI (SK-OV-3 ovarian) | TGI (786-0 renal) | TGI (SK-MEL-28 melanoma) | TGI (MOLT-4 leukemia) | TGI (UO-31 renal) | TGI (HCT-116 colon) | TGI (NCI-H460 lung) | TGI (IGROV1 ovarian) | TGI (EKVX NSCLC) | TGI (SR leukemia) | TGI (SK-MEL-2 melanoma) | TGI (OVCAR-4 ovarian) | TGI (HT29 colon) | TGI (M14 melanoma) | TGI (OVCAR-5 ovarian) | TGI (DU-145 prostate) | TGI (SF-268 CNS) | TGI (K-562 leukemia) | TGI (HCT-15 colon) | TGI (A549 NSCLC) | TGI (COLO 205 colon)
16.8 µM: TGI (MDA-MB-435)
38.5 µM: TGI (HS 578T breast)
38 µM: TGI (NCI/ADR-RES ovarian)
10.6 µM: TGI (SW-620 colon)
29.2 µM: TGI (NCI-H226 lung) | TGI (CAKI-1 renal)
